Assay results taken from publication PMC5218480 (PLoS ONE, 2017).

System: MV-4-11 cells
Assay: Gene expression microarray analysis (Affymetrix PrimeView) and GSEA
Type: cell-based, human
Set-up: RFU PODN (11730768_x_at) / Fold change /veh PODN (11730768_x_at) / RFU LINC00158 (11744669_a_at) / Fold change /veh LINC00158 (11744669_a_at) / RFU DUSP10 (11751237_a_at) / Fold change /veh DUSP10 (11751237_a_at) / RFU ID3 (11757404_x_at) / Fold change /veh ID3 (11757404_x_at) / RFU PLEKHG5 (11737974_s_at) / Fold change /veh PLEKHG5 (11737974_s_at) / RFU LRRC4B (11730491_at) / Fold change /veh LRRC4B (11730491_at) / RFU GIMAP4 (11747438_a_at) / Fold change /veh GIMAP4 (11747438_a_at) / RFU KRT8 (11758183_x_at) / Fold change /veh KRT8 (11758183_x_at) / RFU CNN1 (11734310_a_at) / Fold change /veh CNN1 (11734310_a_at) / RFU VPS37D (11726825_at) / Fold change /veh VPS37D (11726825_at) / RFU C10orf10 (11716522_x_at) / Fold change /veh C10orf10 (11716522_x_at) / RFU KIR2DL2 /// KIR2DL4 /// KIR2DL5A /// KIR2DL5B /// KIR2DS1 /// KIR2DS2 /// KIR2DS3 /// KIR2DS4 /// KIR3DL3 /// KIR3DL3 /// KIR3DS1 (11738374_at) / Fold change /veh KIR2DL2 /// KIR2DL4 /// KIR2DL5A /// KIR2DL5B /// KIR2DS1 /// KIR2DS2 /// KIR2DS3 /// KIR2DS4 /// KIR3DL3 /// KIR3DL3 /// KIR3DS1 (11738374_at) / RFU C1QL1 (11718748_at) / Fold change /veh C1QL1 (11718748_at) / RFU TMPRSS4 (11747572_a_at) / Fold change /veh TMPRSS4 (11747572_a_at) / RFU HAMP (11756126_x_at) / Fold change /veh HAMP (11756126_x_at) / RFU RNFT2 (11725882_a_at) / Fold change /veh RNFT2 (11725882_a_at) / RFU NR4A2 (11747474_a_at) / Fold change /veh NR4A2 (11747474_a_at) / RFU ABCC12 (11746883_a_at) / Fold change /veh ABCC12 (11746883_a_at) / RFU TMEM136 (11760407_x_at) / Fold change /veh TMEM136 (11760407_x_at) / RFU CLDN22 /// WWC2 (11732394_at) / Fold change /veh CLDN22 /// WWC2 (11732394_at) / RFU HLA-DPB1 (11760878_x_at) / Fold change /veh HLA-DPB1 (11760878_x_at) / RFU SPINT1 (11716480_a_at) / Fold change /veh SPINT1 (11716480_a_at) / RFU GAP43 (11754022_s_at) / Fold change /veh GAP43 (11754022_s_at) / RFU A4GNT (11735810_at) / Fold change /veh A4GNT (11735810_at) / RFU PRB3 (11715151_x_at) / Fold change /veh PRB3 (11715151_x_at) / RFU TUBB4B (11761932_at) / Fold change /veh TUBB4B (11761932_at) / RFU CAPN14 (11732068_a_at) / Fold change /veh CAPN14 (11732068_a_at) / RFU TMCC2 (11721928_a_at) / Fold change /veh TMCC2 (11721928_a_at) / RFU IRGQ (11745062_a_at) / Fold change /veh IRGQ (11745062_a_at) / RFU FAM174B (11720279_a_at) / Fold change /veh FAM174B (11720279_a_at) / RFU TMPRSS4 (11748680_a_at) / Fold change /veh TMPRSS4 (11748680_a_at) / RFU FAM212B (11763350_a_at) / Fold change /veh FAM212B (11763350_a_at) / RFU PLEKHG5 (11743358_a_at) / Fold change /veh PLEKHG5 (11743358_a_at) / RFU ZSCAN30 (11745921_a_at) / Fold change /veh ZSCAN30 (11745921_a_at) / RFU CMKLR1 (11741424_a_at) / Fold change /veh CMKLR1 (11741424_a_at) / RFU LOC101060620 /// MAPK8IP1 (11723275_at) / Fold change /veh LOC101060620 /// MAPK8IP1 (11723275_at) / RFU SPTSSB (11747773_x_at) / Fold change /veh SPTSSB (11747773_x_at) / RFU PRSS12 (11739890_at) / Fold change /veh PRSS12 (11739890_at) / RFU BIN1 (11741810_x_at) / Fold change /veh BIN1 (11741810_x_at) / RFU WNT11 (11732464_a_at) / Fold change /veh WNT11 (11732464_a_at) / RFU C10orf10 (11716521_a_at) / Fold change /veh C10orf10 (11716521_a_at) / RFU C5orf56 (11738089_at) / Fold change /veh C5orf56 (11738089_at) / RFU CYB561 (11721691_x_at) / Fold change /veh CYB561 (11721691_x_at) / RFU ANKRD19P (11752326_a_at) / Fold change /veh ANKRD19P (11752326_a_at) / RFU OR2T12 /// OR2T33 /// OR2T8 (11738714_s_at) / Fold change /veh OR2T12 /// OR2T33 /// OR2T8 (11738714_s_at) / RFU VCAN (11748164_a_at) / Fold change /veh VCAN (11748164_a_at) / RFU JSRP1 (11732532_at) / Fold change /veh JSRP1 (11732532_at) / RFU KRTAP10-11 (11738290_x_at) / Fold change /veh KRTAP10-11 (11738290_x_at) / RFU MYO3A (11730013_a_at) / Fold change /veh MYO3A (11730013_a_at) / RFU EBF3 (11725865_a_at) / Fold change /veh EBF3 (11725865_a_at) / RFU CAMK2N1 (11719241_x_at) / Fold change /veh CAMK2N1 (11719241_x_at) / RFU C5orf56 (11738088_a_at) / Fold change /veh C5orf56 (11738088_a_at) / RFU OLFML3 (11715873_a_at) / Fold change /veh OLFML3 (11715873_a_at) / RFU LOC100653217 /// NTM (11731650_a_at) / Fold change /veh LOC100653217 /// NTM (11731650_a_at) / RFU MAPK11 (11762145_a_at) / Fold change /veh MAPK11 (11762145_a_at) / RFU FIZ1 (11724087_x_at) / Fold change /veh FIZ1 (11724087_x_at) / RFU OASL (11726364_x_at) / Fold change /veh OASL (11726364_x_at) / RFU SOX15 (11748057_x_at) / Fold change /veh SOX15 (11748057_x_at) / RFU CD79A (11719716_a_at) / Fold change /veh CD79A (11719716_a_at) / RFU HIST1H1D (11736915_at) / Fold change /veh HIST1H1D (11736915_at) / RFU CASKIN2 (11723855_a_at) / Fold change /veh CASKIN2 (11723855_a_at) / RFU LOC730098 (11760151_x_at) / Fold change /veh LOC730098 (11760151_x_at) / RFU OR4N2 (11742367_at) / Fold change /veh OR4N2 (11742367_at) / RFU PRRT2 (11749266_a_at) / Fold change /veh PRRT2 (11749266_a_at) / RFU SNX32 (11753110_a_at) / Fold change /veh SNX32 (11753110_a_at) / RFU CDHR5 (11726645_a_at) / Fold change /veh CDHR5 (11726645_a_at) / RFU RCAN1 (11760418_a_at) / Fold change /veh RCAN1 (11760418_a_at) / RFU FAM167A (11723789_a_at) / Fold change /veh FAM167A (11723789_a_at) / RFU FAM26E (11764081_at) / Fold change /veh FAM26E (11764081_at) / RFU ISYNA1 (11749810_s_at) / Fold change /veh ISYNA1 (11749810_s_at) / RFU ACY1 (11761880_at) / Fold change /veh ACY1 (11761880_at) / RFU 11764098_at / Fold change /veh 11764098_at / RFU SAMD14 (11745864_x_at) / Fold change /veh SAMD14 (11745864_x_at) / RFU NPB (11741838_a_at) / Fold change /veh NPB (11741838_a_at) / RFU TMPRSS6 (11731388_a_at) / Fold change /veh TMPRSS6 (11731388_a_at) / RFU KRTAP10-2 (11738614_at) / Fold change /veh KRTAP10-2 (11738614_at) / RFU ARHGAP8 /// PRR5-ARHGAP8 (11727945_x_at) / Fold change /veh ARHGAP8 /// PRR5-ARHGAP8 (11727945_x_at) / RFU KRTAP5-7 /// NADSYN1 (11734609_at) / Fold change /veh KRTAP5-7 /// NADSYN1 (11734609_at) / RFU RASL12 (11751679_a_at) / Fold change /veh RASL12 (11751679_a_at) / RFU CDKN2B (11736163_a_at) / Fold change /veh CDKN2B (11736163_a_at) / RFU PRF1 (11729649_at) / Fold change /veh PRF1 (11729649_at) / RFU, ZNF638 /// ZNF638-IT1 / Fold change vs veh, ZNF638 /// ZNF638-IT1 / RFU, PANK3 / Fold change vs veh, PANK3 / RFU, SH3YL1 / Fold change vs veh, SH3YL1 / RFU, ZEB2 / Fold change vs veh, ZEB2 / RFU, NRIP1 / Fold change vs veh, NRIP1 / RFU, PTTG1IP / Fold change vs veh, PTTG1IP / RFU, CAPN2 / Fold change vs veh, CAPN2 / RFU, MED14 / Fold change vs veh, MED14 / RFU, SNORA58 / Fold change vs veh, SNORA58 / RFU, C1orf63 / Fold change vs veh, C1orf63 / RFU, LRRFIP1 / Fold change vs veh, LRRFIP1 / RFU, NDUFAF7 / Fold change vs veh, NDUFAF7 / RFU, SLC12A2 / Fold change vs veh, SLC12A2 / RFU, IBTK / Fold change vs veh, IBTK / RFU, ESF1 / Fold change vs veh, ESF1 / Fold change vs veh, TMEM50B / RFU, TAOK1 / Fold change vs veh, TAOK1 / RFU, ACBD3 / Fold change vs veh, ACBD3 / RFU, TMA16 / Fold change vs veh, TMA16 / RFU, RWDD3 / Fold change vs veh, RWDD3 / RFU, BCAT1 / Fold change vs veh, BCAT1 / RFU, EDEM3 / Fold change vs veh, EDEM3 / RFU, TMEM33 / Fold change vs veh, TMEM33 / RFU, WDR75 / Fold change vs veh, WDR75 / RFU, AHCTF1 / Fold change vs veh, AHCTF1 / RFU, TFRC / Fold change vs veh, TFRC / RFU, ZDHHC17 / Fold change vs veh, ZDHHC17 / RFU, NOM1 / Fold change vs veh, NOM1 / RFU, ARL8B / Fold change vs veh, ARL8B / RFU, ZBTB11 / Fold change vs veh, ZBTB11 / RFU, TAMM41 / Fold change vs veh, TAMM41 / RFU, KIAA1704 /// LOC100996395 / Fold change vs veh, KIAA1704 /// LOC100996395 / RFU, ING1 / Fold change vs veh, ING1 / RFU, TRMT61B / Fold change vs veh, TRMT61B / RFU, FUBP3 / Fold change vs veh, FUBP3 / RFU, TP53 / Fold change vs veh, TP53 / RFU, TNKS2 / Fold change vs veh, TNKS2 / RFU, ZFP14 / Fold change vs veh, ZFP14 / RFU, ACTR2 / Fold change vs veh, ACTR2 / RFU, PPP3R1 / Fold change vs veh, PPP3R1 / RFU, PIK3R1 / Fold change vs veh, PIK3R1 / RFU, HNRNPA1 / Fold change vs veh, HNRNPA1 / RFU, RNF170 / Fold change vs veh, RNF170 / RFU, ZNF28 / Fold change vs veh, ZNF28 / RFU, RNGTT / Fold change vs veh, RNGTT / RFU, OGT / Fold change vs veh, OGT / RFU, BRD1 / Fold change vs veh, BRD1 / RFU, MARS / Fold change vs veh, MARS / RFU, ZNF655 / Fold change vs veh, ZNF655 / RFU, FAHD1 / Fold change vs veh, FAHD1 / RFU, BDP1 / Fold change vs veh, BDP1 / RFU, LRRCC1 / Fold change vs veh, LRRCC1 / RFU, ARID1A / Fold change vs veh, ARID1A / RFU, ZNF146 / Fold change vs veh, ZNF146 / RFU, ZNF330 / Fold change vs veh, ZNF330 / RFU, GPN3 / Fold change vs veh, GPN3 / RFU, C9orf123 / Fold change vs veh, C9orf123 / RFU, N4BP2L2 / Fold change vs veh, N4BP2L2 / RFU, ARFIP1 / Fold change vs veh, ARFIP1 / RFU, FAM179B / Fold change vs veh, FAM179B / RFU, BCL10 / Fold change vs veh, BCL10 / RFU, UHRF1BP1L / Fold change vs veh, UHRF1BP1L / RFU, BET1 / Fold change vs veh, BET1 / RFU, CNOT2 / Fold change vs veh, CNOT2 / RFU, ZNF268 / Fold change vs veh, ZNF268 / Fold change vs veh, ZNF507 / RFU, DGCR2 / Fold change vs veh, DGCR2 / RFU, WDSUB1 / Fold change vs veh, WDSUB1 / Fold change vs veh, HSP90B1 /// MIR3652 / RFU, ADSS / Fold change vs veh, ADSS / RFU, GK / Fold change vs veh, GK / RFU, ZNF148 / Fold change vs veh, ZNF148 / RFU, TAF9 / Fold change vs veh, TAF9 / RFU, SLC1A5 / Fold change vs veh, SLC1A5 / RFU, SLMO2 / Fold change vs veh, SLMO2 / RFU, ABCC4 / Fold change vs veh, ABCC4 / RFU, LOC101060439 /// RAP1B / Fold change vs veh, LOC101060439 /// RAP1B / RFU, RFX7 / Fold change vs veh, RFX7 / RFU, GTPBP10 / Fold change vs veh, GTPBP10 / RFU, CNEP1R1 / Fold change vs veh, CNEP1R1 / RFU, BIVM-ERCC5 /// ERCC5 / Fold change vs veh, BIVM-ERCC5 /// ERCC5 / RFU, ILF3 / Fold change vs veh, ILF3 / RFU 11762660_at / Fold change /veh 11762660_at / RFU VCAN (11757783_s_at) / Fold change /veh VCAN (11757783_s_at) / RFU DDX43 (11728927_at) / Fold change /veh DDX43 (11728927_at) / RFU KRT8 (11758188_x_at) / Fold change /veh KRT8 (11758188_x_at) / RFU NKD1 (11759106_at) / Fold change /veh NKD1 (11759106_at) / RFU SRD5A1 (11742802_a_at) / Fold change /veh SRD5A1 (11742802_a_at) / RFU TPSAB1 /// TPSB2 (11721975_s_at) / Fold change /veh TPSAB1 /// TPSB2 (11721975_s_at) / RFU GSTM3 (11746129_a_at) / Fold change /veh GSTM3 (11746129_a_at) / RFU IL23R (11737362_x_at) / Fold change /veh IL23R (11737362_x_at) / RFU TMEM51 (11727254_a_at) / Fold change /veh TMEM51 (11727254_a_at) / RFU PIWIL2 (11732686_x_at) / Fold change /veh PIWIL2 (11732686_x_at) / RFU ORM1 (11744905_x_at) / Fold change /veh ORM1 (11744905_x_at) / RFU CCDC152 (11743942_at) / Fold change /veh CCDC152 (11743942_at) / RFU ECM1 (11717891_a_at) / Fold change /veh ECM1 (11717891_a_at) / RFU IL23R (11748794_a_at) / Fold change /veh IL23R (11748794_a_at) / RFU TNFAIP8L3 (11732012_x_at) / Fold change /veh TNFAIP8L3 (11732012_x_at) / RFU MBOAT4 (11741988_at) / Fold change /veh MBOAT4 (11741988_at) / RFU 11764193_at / Fold change /veh 11764193_at / RFU TMEM53 (11763286_at) / Fold change /veh TMEM53 (11763286_at) / RFU MAGEB2 (11727129_at) / Fold change /veh MAGEB2 (11727129_at) / RFU TMEM200A (11744735_a_at) / Fold change /veh TMEM200A (11744735_a_at) / RFU CCDC152 (11751479_a_at) / Fold change /veh CCDC152 (11751479_a_at) / RFU FAM211A (11726209_a_at) / Fold change /veh FAM211A (11726209_a_at) / RFU RGS16 (11746705_a_at) / Fold change /veh RGS16 (11746705_a_at) / RFU VCAN (11755009_s_at) / Fold change /veh VCAN (11755009_s_at) / RFU RHOB (11743442_s_at) / Fold change /veh RHOB (11743442_s_at) / RFU RGS16 (11720943_a_at) / Fold change /veh RGS16 (11720943_a_at) / RFU RGS16 (11720944_at) / Fold change /veh RGS16 (11720944_at) / RFU, VPS4B / Fold change vs veh, VPS4B / RFU, CREB1 / Fold change vs veh, CREB1 / RFU, DNAJC13 / Fold change vs veh, DNAJC13 / RFU, GNAQ / Fold change vs veh, GNAQ / RFU, CDK5R1 / Fold change vs veh, CDK5R1 / RFU, ZRANB3 / Fold change vs veh, ZRANB3 / RFU, CUL4A / Fold change vs veh, CUL4A / RFU, CCNY / Fold change vs veh, CCNY / RFU, UFL1 / Fold change vs veh, UFL1 / RFU, COG3 / Fold change vs veh, COG3 / RFU, DIAPH2 / Fold change vs veh, DIAPH2 / RFU, SKA2 / Fold change vs veh, SKA2 / RFU, AFF3 / Fold change vs veh, AFF3 / RFU, LMF1 / Fold change vs veh, LMF1 / RFU, IPO11 / Fold change vs veh, IPO11 / RFU, DFFB / Fold change vs veh, DFFB / RFU, FOXP1 / Fold change vs veh, FOXP1 / RFU, CARD8 / Fold change vs veh, CARD8 / RFU, STRN3 / Fold change vs veh, STRN3 / RFU, ADK / Fold change vs veh, ADK / RFU, RASSF2 / Fold change vs veh, RASSF2 / RFU, WIPF1 / Fold change vs veh, WIPF1 / RFU, LARP1B / Fold change vs veh, LARP1B / RFU, RASA1 / Fold change vs veh, RASA1 / RFU, RB1 / Fold change vs veh, RB1 / RFU, PPFIA1 / Fold change vs veh, PPFIA1 / RFU, MAT2A / Fold change vs veh, MAT2A / RFU, CCT5 / Fold change vs veh, CCT5 / RFU, WDR92 / Fold change vs veh, WDR92 / RFU, CUX1 / Fold change vs veh, CUX1 / RFU, TTC7A / Fold change vs veh, TTC7A / RFU, TMEM135 / Fold change vs veh, TMEM135 / RFU, DEPTOR / Fold change vs veh, DEPTOR / RFU, CPM / Fold change vs veh, CPM / RFU, DNAJB6 / Fold change vs veh, DNAJB6 / RFU, CACNA2D3 / Fold change vs veh, CACNA2D3 / RFU, DTX4 / Fold change vs veh, DTX4 / RFU, TFCP2 / Fold change vs veh, TFCP2 / RFU, GMCL1 /// GMCL1P1 / Fold change vs veh, GMCL1 /// GMCL1P1 / RFU, AEBP2 / Fold change vs veh, AEBP2 / RFU, SNHG1 /// SNORD22 /// SNORD25 /// SNORD26 /// SNORD27 /// SNORD28 /// SNORD29 /// SNORD31 / Fold change vs veh, SNHG1 /// SNORD22 /// SNORD25 /// SNORD26 /// SNORD27 /// SNORD28 /// SNORD29 /// SNORD31 / Fold change (Aza/veh), C12orf56 (ProbeSet 11735607_a_at) / Fold change (ACY-1035/veh), C12orf56 (ProbeSet 11735607_a_at) / Fold change (Aza/veh), FGFR1OP (ProbeSet 11751329_s_at) / Fold change (ACY-1035/veh), FGFR1OP (ProbeSet 11751329_s_at) / Fold change (Aza/veh), VPS36 (ProbeSet 11739960_a_at) / Fold change (ACY-1035/veh), VPS36 (ProbeSet 11739960_a_at) / RFU SYPL1 (11715823_x_at) / Fold change /veh SYPL1 (11715823_x_at) / RFU IGFBP7 (11715501_s_at) / Fold change /veh IGFBP7 (11715501_s_at) / RFU REEP3 (11722064_at) / Fold change /veh REEP3 (11722064_at) / RFU IGLL1 (11728026_x_at) / Fold change /veh IGLL1 (11728026_x_at): dose or concentration left out as unconfirmed
Conditions: ProbeSet 11721611_a_at; LIST D

For `Nc1ccc(-c2cccs2)cc1NC(=O)c1ccc2c(c1)cc(C1CC1)n2CCN1CCOCC1` [ACY-1035], the “RFU, IPO11” value was 82.15 RFU.
